Laboratory results published in US9695133B2, “Quinazolinone-based oncogenic-RAS-selective lethal compounds and their use” (THE TRUSTEES OF COLUMBIA UNIVERSITY IN THE CITY OF NEW YORK, priority 2012, dated 2017).
Values joined by “and” are separate entries in the source; they are usually repeats but may differ in a detail not shown here. Identical values can stand only once. Like-named read-outs stand apart in the source and are kept apart here.

Assays:
[1] = Plasma pharmacokinetics after single IV and PO dose; format: in vivo, male C57BL6/j mice; details: for Plasma Concentration, individual mice / concentration at 0.5 hr / concentration at 1 hr / concentration at 2 hr / concentration at 4 hr / concentration at 8 hr / concentration at 12 hr / Vd: 20 mg/kg; for MRT inf: read-out: MRT(0-∞)
Method: Three mice in each group were used for blood collection at each time point. Blood samples (approximately 400 μL) were collected after euthanasia using carbon dioxide inhalation via cardiac puncture pre-dose and 30 minutes, 1 hour, 2 hours, 4 hours, 8 hours and 12 hours post-dose. Blood samples were placed into tubes containing sodium heparin and centrifuged at 8000 rpm for 6 minutes at 4° C. to separate plasma from the blood samples. Following centrifugation, the resulting plasma was transferred to clean tubes and stored frozen at −80° C. until bioanalysis by the Testing Facility.

[2] = in vivo; details: male, C57BL6/j, mouse, 20 mg/kg
[3] = male, C57BL6/j, mouse, in vivo, po, 20 mg/kg
[4] = Postdose observations in the pharmacokinetic study; format: in vivo, male C57BL6/j mice; details: single 20 mg/kg IV or PO
[5] = male, C57BL6/j, mouse, plasma, IV 20 mg/kg
[6] = male, C57BL6/j, mouse, plasma, PO 20 mg/kg
[7] = iv, Brain Concentration, individual mice
[8] = iv, Brain-Plasma Concentration Ratio, Mean
[9] = iv, Brain-Plasma Concentration Ratio, individual mice
[10] = po, Brain Concentration, individual mice
[11] = po, Brain-Plasma Concentration Ratio, Mean
[12] = po, Brain-Plasma Concentration Ratio, individual mice

Question: Which results are given for `CC(C)Oc1ccc(CN2CCNCC2)cc1-n1c(CN2CCN(C(=O)COc3ccc(Cl)cc3)CC2)nc2ccccc2c1=O` [PE, 2-((4-(2-(4-chlorophenoxy)ethanoyl)piperazin-1-yl)methyl)-3-(2-isopropoxy-5-(piperazin-1-ylmethyl)phenyl)quinazolin-4(3H)-one]?
Answer: Plasma Concentration, individual mice ([1]; IV 20 mg/kg, 0.5 hr): 4625.87 ng/mL and 2218.81 ng/mL and 2826.92 ng/mL; Plasma Concentration, individual mice ([1]; IV 20 mg/kg, 1 hr): 1548.38 ng/mL and 657.50 ng/mL and 1509.78 ng/mL; Plasma Concentration, individual mice ([1]; IV 20 mg/kg, 2 hr): 1016.04 ng/mL and 1054.66 ng/mL; Plasma Concentration, individual mice ([1]; IV 20 mg/kg, 4 hr): 200.14 ng/mL and 657.19 ng/mL and 379.24 ng/mL; Plasma Concentration, individual mice ([1]; IV 20 mg/kg, 8 hr): 105.57 ng/mL and 148.67 ng/mL; Plasma Concentration, individual mice ([1]; IV 20 mg/kg, 12 hr): 34.53 ng/mL and 159.78 ng/mL and 96.08 ng/mL; Plasma Concentration, individual mice ([1]; PO 20 mg/kg, 0.5 hr): 365.89 ng/mL and 403.60 ng/mL and 87.63 ng/mL; Plasma Concentration, individual mice ([1]; PO 20 mg/kg, 1 hr): 1635.86 ng/mL and 1288.53 ng/mL; Plasma Concentration, individual mice ([1]; PO 20 mg/kg, 2 hr): 1260.55 ng/mL and 527.50 ng/mL and 1016.24 ng/mL; Plasma Concentration, individual mice ([1]; PO 20 mg/kg, 4 hr): 642.39 ng/mL and 669.76 ng/mL; Plasma Concentration, individual mice ([1]; PO 20 mg/kg, 8 hr): 23.99 ng/mL and 28.91 ng/mL; Plasma Concentration, individual mice ([1]; PO 20 mg/kg, 12 hr): 21.10 ng/mL and 15.06 ng/mL; concentration at 0.5 hr ([1]; male, C57BL6/j, mouse, plasma, iv, IV 20 mg/kg, 0.5 hr): 3220 ng/mL; concentration at 1 hr ([1]; male, C57BL6/j, mouse, plasma, iv, IV 20 mg/kg, 1 hr, read-out: Plasma Concentration, Mean): 1240 ng/mL; concentration at 2 hr ([1]; male, C57BL6/j, mouse, plasma, iv, IV 20 mg/kg, 2 hr, read-out: Plasma Concentration, Mean): 997 ng/mL; concentration at 2 hr ([1]; male, C57BL6/j, mouse, plasma, iv, IV 20 mg/kg, 2 hr, read-out: Plasma Concentration, individual mice): 920 ng/mL; concentration at 4 hr ([1]; male, C57BL6/j, mouse, plasma, iv, IV 20 mg/kg, 4 hr, read-out: Plasma Concentration, Mean): 412 ng/mL; concentration at 8 hr ([1]; male, C57BL6/j, mouse, plasma, iv, IV 20 mg/kg, 8 hr, read-out: Plasma Concentration, Mean): 134 ng/mL; concentration at 8 hr ([1]; male, C57BL6/j, mouse, plasma, iv, IV 20 mg/kg, 8 hr, read-out: Plasma Concentration, individual mice): 147 ng/mL; concentration at 12 hr ([1]; male, C57BL6/j, mouse, plasma, iv, IV 20 mg/kg, 12 hr, read-out: Plasma Concentration, Mean): 96.8 ng/mL; Vd ([1]; male, C57BL6/j, mouse, plasma, iv, plasma, IV 20 mg/kg, read-out: Vz): 9.63 L/kg; Vd ([1]; male, C57BL6/j, mouse, plasma, iv, plasma, IV 20 mg/kg, read-out: volume of distribution at terminal phase): 9.63 L/kg; concentration at 0.5 hr ([1]; male, C57BL6/j, mouse, plasma, po, PO 20 mg/kg, 0.5 hr): 286 ng/mL; concentration at 1 hr ([1]; male, C57BL6/j, mouse, plasma, po, PO 20 mg/kg, 1 hr, read-out: Plasma Concentration, Mean): 1390 ng/mL; concentration at 1 hr ([1]; male, C57BL6/j, mouse, plasma, po, PO 20 mg/kg, 1 hr, read-out: Plasma Concentration, individual mice): 1240 ng/mL; concentration at 2 hr ([1]; male, C57BL6/j, mouse, plasma, po, PO 20 mg/kg, 2 hr, read-out: Plasma Concentration, Mean): 935 ng/mL; concentration at 4 hr ([1]; male, C57BL6/j, mouse, plasma, po, PO 20 mg/kg, 4 hr, read-out: Plasma Concentration, Mean): 696 ng/mL; concentration at 4 hr ([1]; male, C57BL6/j, mouse, plasma, po, PO 20 mg/kg, 4 hr, read-out: Plasma Concentration, individual mice): 777 ng/mL; concentration at 8 hr ([1]; male, C57BL6/j, mouse, plasma, po, PO 20 mg/kg, 8 hr, read-out: Plasma Concentration, Mean): 24 ng/mL; concentration at 8 hr ([1]; male, C57BL6/j, mouse, plasma, po, PO 20 mg/kg, 8 hr, read-out: Plasma Concentration, individual mice): 19.1 ng/mL; concentration at 12 hr ([1]; male, C57BL6/j, mouse, plasma, po, PO 20 mg/kg, 12 hr, read-out: Plasma Concentration, Mean): 18.8 ng/mL; concentration at 12 hr ([1]; male, C57BL6/j, mouse, plasma, po, PO 20 mg/kg, 12 hr, read-out: Plasma Concentration, individual mice): 20.2 ng/mL; bioavailability ([1]; male, C57BL6/j, mouse, plasma, PO 20 mg/kg vs IV 20 mg/kg, read-out: F (bioavailability)): 57.1%; AUC(0-inf) [1, 5]: 8490 ng·h/mL; AUC(0-t) [1, 5]: 8100 ng·h/mL; Cmax [1, 5]: 3220 ng/mL; Tmax [1, 5]: 0.5 h; half-life [1, 5]: 2.84 h; MRT inf [1, 5]: 2.67 h; clearance ([1]; male, C57BL6/j, mouse, plasma, IV 20 mg/kg, read-out: systemic clearance (converted)): 39.2 mL/min/kg; AUC(0-inf) [1, 6]: 4850 ng·h/mL; AUC(0-t) [1, 6]: 4810 ng·h/mL; Cmax [1, 6]: 1390 ng/mL; Tmax [1, 6]: 1 h; half-life [1, 6]: 1.57 h; MRT inf [1, 6]: 2.91 h; CLz ([1]; plasma, IV 20 mg/kg): 39.2413 mL/min/kg; MRT inf ([2]; iv): 9.91 h; Tmax ([2]; iv): 0.5 h; half-life ([2]; iv): 6.41 h; concentration at 0.5 h ([2]; iv, Brain Concentration, Mean): 96.1 ng/g; concentration at 1 h ([2]; iv, Brain Concentration, Mean): 85.5 ng/g; concentration at 2 h ([2]; iv, Brain Concentration, Mean): 73.7 ng/g; concentration at 4 h ([2]; iv, Brain Concentration, Mean): 48 ng/g; concentration at 8 h ([2]; iv, Brain Concentration, Mean): 30 ng/g; concentration at 12 h ([2]; iv, Brain Concentration, Mean): 29.8 ng/g; concentration at 0.5 h [2, 7]: 116 ng/g; concentration at 1 h [2, 7]: 76.6 ng/g; concentration at 2 h [2, 7]: 79.1 ng/g; concentration at 4 h [2, 7]: 34.1 ng/g; Kp at 0.5 hr [2, 8]: 0.03; Kp at 1 h [2, 8]: 0.08; Kp at 2 h [2, 8]: 0.07; Kp at 4 h [2, 8]: 0.13; Kp at 8 h [2, 8]: 0.23; Kp at 12 h [2, 8]: 0.44; Kp at 0.5 hr [2, 9]: 0.03; Kp at 2 h [2, 9]: 0.09; Kp at 4 h [2, 9]: 0.17; Tmax ([2]; po): 4 h; concentration at 1 h ([2]; po, Brain Concentration, Mean): 14.9 ng/g; concentration at 2 h ([2]; po, Brain Concentration, Mean): 12.3 ng/g; concentration at 4 h ([2]; po, Brain Concentration, Mean): 15.6 ng/g; concentration at 1 h [2, 10]: 10.9 ng/g; concentration at 2 h [2, 10]: 15.1 ng/g; concentration at 4 h [2, 10]: 14.2 ng/g; Kp at 1 h [2, 11]: 0.01; Kp at 2 h [2, 11]: 0.01; Kp at 4 hr [2, 11]: 0.02; Kp at 1 h [2, 12]: 0.01; Kp at 2 h [2, 12]: 0.01; Kp at 4 hr [2, 12]: 0.02; Brain Concentration, individual mice ([3]; 1 h): 18.92 ng/g; Brain-Plasma Concentration Ratio, individual mice ([3]; 1 h): 0.01 mL/g; Brain Concentration, individual mice ([3]; 2 h): 9.49 ng/g; Brain-Plasma Concentration Ratio, individual mice ([3]; 2 h): 0.01 mL/g; postdose observations [4]: No abnormal observations were noted
